Assay results as given in patent publication US20210121437A1, “[…] AGENTS […] FLAVONOID DERIVATIVES TARGETING KINASES, SIRTUINS AND ONCOGENIC AGENTS FOR THE TREATMENT OF MULTIPLE MYELOMA, LYMPHOMA, AND […]” (priority 2015, published 2021).
Read-outs that look alike come from different tables or passages of the source.

What was measured:
[1] = tested on: human pancreatic cancer xenograft CFPAC-1 cells; test: human pancreatic cancer xenograft CFPAC-1 in scid mice; format: in vivo; conditions: CFPAC-1 xenograft
Description: The results of the anticancer activity are presented in Tables 3 and 4 (above) and in FIG. 6, Hela cells shown at (A) and CMK cells at (B) and MV4-11 and MOLT-14 acute myeloid leukemia cells.

[2] = tested on: MOLM-14 Acute Myeloid Leukemia cell line; test: anticancer cell proliferation assay (WST-1); format: cell-based; conditions: Table 4; read-out: IC50 Acute Myeloid Leukemia cell lines MOLM-14
Description: (§1) Anticancer activity was tested against several standard cancer cell lines including brain, breast, Kaposi sarcoma, leukemia, lung, melanoma, tenosynovial giant cell tumor, ovarian, pancreatic, colon and prostate cancer. Cells were trypsinized and plated into 96 well plates in 50 μl of media and incubated overnight. The next day approximately 18 hours after plating, 50 μl of media containing the required flavonoid-based pharmaceutical composition was added per well. Cells were plated at a density so that 72 hours post drug addition, the cells will be in log phase (500-2000 cells/well). The compounds and extracts were solubilized in Dimethyl sulfoxide (DMSO). The cells are allowed to proliferate for 72 hours 37° C. in humidified atmosphere of 5% CO2. The experiment is terminated using WST-1 (Roche®) 10 μl per well and absorbance is read at 450 nm/690 nm. The effect of drugs on growth is assessed as percent of cell viability. The IC50 values were determined from the extract dose versus control growth curves using Graphpad Prism® software. All experiments were carried out in duplicate and the mean results determined.

[3] = tested on: THP-1 Acute Myeloid Leukemia cell line; test: anticancer cell proliferation assay (WST-1); format: cell-based; conditions: Table 4; read-out: IC50 Acute Myeloid Leukemia cell lines THP-1
Description: as §1

MV4-11 (Leukemia) = test: anticancer cell proliferation assay (WST-1); format: cell-based
Description: as §1

Normal Bone marrow = test: anticancer cell proliferation assay (WST-1); format: cell-based; conditions: Table 4
Description: as §1, with “Bioactivity of the above-described compounds has been verified by an anticancer cell proliferation assay using the WST-1 (4-[3-(4-iodophenyl)-2-(4-nitrophenyl)-2H-5-tetrazoliol-1, 3-benzene disulfonate) colorimetric assay by Roche Life Sciences®. Anticancer” for “Anticancer”

SIRT-5 = SIRT-5 (Homo sapiens, UniProt Q9NXA8); test: inhibition of sirtuins; format: biochemical
Sequence of SIRT-5 (Q9NXA8 37-310): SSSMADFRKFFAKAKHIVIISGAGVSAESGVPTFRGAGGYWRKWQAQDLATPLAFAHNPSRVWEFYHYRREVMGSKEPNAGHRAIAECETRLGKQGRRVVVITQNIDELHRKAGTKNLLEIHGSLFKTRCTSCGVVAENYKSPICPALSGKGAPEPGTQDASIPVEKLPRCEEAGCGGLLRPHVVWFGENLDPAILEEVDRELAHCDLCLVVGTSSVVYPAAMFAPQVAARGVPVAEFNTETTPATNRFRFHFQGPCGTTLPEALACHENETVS
Description: Inhibition of Sirtuins, matrix metalloproteinase, bromodomains was also confirmed using standard protocols and the results are present in Table 2.

[4] = tested on: 60 cancer cell line panel; conditions: US National Cancer Institute 60 cancer cell line panel; cited from earlier work
[5] = tested on: KMS-11 (Multiple myeloma); test: anticancer cell proliferation assay (WST-1); format: cell-based; conditions: 72 hours
Description: as §1, with “Bioactivity of the above-described compounds has been verified by an anticancer cell proliferation assay using the WST-1 (4-[3-(4-iodophenyl)-2-(4-nitrophenyl)-2H-5-tetrazoliol-1, 3-benzene disulfonate) colorimetric assay by Roche Life Sciences®. Anticancer” for “Anticancer”

MM.1S (Multiple Myeloma) = test: anticancer cell proliferation assay (WST-1); format: cell-based; conditions: 72 hours
Description: as §1, with “Bioactivity of the above-described compounds has been verified by an anticancer cell proliferation assay using the WST-1 (4-[3-(4-iodophenyl)-2-(4-nitrophenyl)-2H-5-tetrazoliol-1, 3-benzene disulfonate) colorimetric assay by Roche Life Sciences®. Anticancer” for “Anticancer”

PDGFRa(T6741) = target: T1, PDGFRa(T6741) (Homo sapiens, UniProt P16234, T674I); test: kinase competition binding assay; conditions: Table 1
T1 construct: catalytic domain constructs for large multi-domain kinases; T7 phage fusion (most assays) or DNA tag for qPCR (HEK-293-made kinases); made in house
T1 sequence (P16234 593-954 T674I limits assumed): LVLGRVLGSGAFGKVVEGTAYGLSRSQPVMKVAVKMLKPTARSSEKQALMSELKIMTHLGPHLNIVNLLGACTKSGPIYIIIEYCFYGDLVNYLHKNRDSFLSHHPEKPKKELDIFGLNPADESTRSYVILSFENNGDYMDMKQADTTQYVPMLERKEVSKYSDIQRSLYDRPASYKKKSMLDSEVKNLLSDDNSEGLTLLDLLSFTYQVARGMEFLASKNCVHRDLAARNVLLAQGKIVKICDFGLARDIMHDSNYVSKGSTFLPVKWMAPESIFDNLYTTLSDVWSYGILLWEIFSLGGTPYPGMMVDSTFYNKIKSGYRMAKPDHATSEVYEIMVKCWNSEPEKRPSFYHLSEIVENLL
Description: (§2) Cannabis flavonoids and their analogs were subjected to kinase inhibition assay. The compounds were first screened at a single concentration of 10 μM in the primary assay. […]. To determine the kd or IC50 values, competition binding assays were established, authenticated and executed as described previously. Fabian et al., “A Small Molecule-Kinase Interaction Map For Clinical Kinase Inhibitors.”, Nat Biotechnol, 23(3):329-36, Epub (2005). See also, Karaman et al., “A Quantitative Analysis Of Kinase Inhibitor Selectivity”, Nat. Biotechnol. […] For most assays, kinases were fused to T7 phage strains (Fabian, supra) and for the other assays, kinases were produced in HEK-293 cells after which they were tagged with DNA for quantitative PCR detection. In general, full-length constructs were used for small, single domain kinases, and catalytic domain constructs for large multi-domain kinases. The binding assays utilized streptavidin-coated magnetic beads treated with biotinylated small molecule ligands for 30 minutes at room temperature which generated affinity resins for the kinase assays. The liganded beads were blocked with excess biotin and washed with blocking buffer (SeaBlock (Pierce), 1% BSA, 0.05% Tween 20, 1 mM DTT) to remove unbound ligand and to reduce non-specific phage binding. […] Test compounds were prepared as 40× stocks in 100% DMSO and diluted directly into the assay (Final DMSO concentration=2.5%). All reactions were performed in polypropylene 384-well plates in a final volume of 0.04 ml. […] The beads were then re-suspended in elution buffer (1×PBS, 0.05% Tween 20, 0.5 μM non-biotinylated affinity ligand) and incubated at room temperature with shaking for 30 minutes. The kinase concentration in the eluates was measured by quantitative PCR. An illustration of the kinase interaction process is presented below. Kd/IC50 values were determined using a standard dose response curve using the hill equation. Curves were fitted using a non-linear least square fit with the Levenberg-Marquardt algorithm.

Yes/yes1 = target: T2, Yes/yes1 (Homo sapiens, UniProt P07947); test: kinase competition binding assay; conditions: Table 1
T2 construct: T7 phage fusion (most assays) or DNA tag for qPCR (HEK-293-made kinases); made in house
T2 sequence (P07947 whole entry, the tested form may be a part): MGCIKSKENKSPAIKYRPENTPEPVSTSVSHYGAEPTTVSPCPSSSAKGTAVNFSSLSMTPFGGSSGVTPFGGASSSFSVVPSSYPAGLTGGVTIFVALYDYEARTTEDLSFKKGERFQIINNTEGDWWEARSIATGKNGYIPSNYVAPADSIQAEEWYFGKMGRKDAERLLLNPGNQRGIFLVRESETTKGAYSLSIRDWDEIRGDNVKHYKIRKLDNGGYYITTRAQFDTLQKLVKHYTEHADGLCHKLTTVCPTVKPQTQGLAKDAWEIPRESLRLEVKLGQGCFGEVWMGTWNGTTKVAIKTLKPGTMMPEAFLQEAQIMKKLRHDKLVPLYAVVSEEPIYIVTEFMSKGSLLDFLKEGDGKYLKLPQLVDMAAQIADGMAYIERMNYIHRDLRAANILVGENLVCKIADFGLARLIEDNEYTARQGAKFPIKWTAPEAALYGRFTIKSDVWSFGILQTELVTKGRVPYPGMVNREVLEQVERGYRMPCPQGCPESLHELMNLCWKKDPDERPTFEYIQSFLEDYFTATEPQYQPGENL
Description: as §2

PIP5K1A = target: T3, PIP5K1A (Homo sapiens, UniProt Q99755); test: kinase competition binding assay; conditions: Table 1
T3 construct: T7 phage fusion (most assays) or DNA tag for qPCR (HEK-293-made kinases); made in house
Description: as §2

MELK = target: T4, MELK (Homo sapiens, UniProt Q14680); test: kinase competition binding assay; conditions: Table 1
T4 construct: full-length constructs were used for small, single domain kinases, and catalytic domain constructs for large multi-domain kinases; T7 phage fusion (most assays) or DNA tag for qPCR (HEK-293-made kinases); made in house
T4 sequence (Q14680 whole entry, the tested form may be a part): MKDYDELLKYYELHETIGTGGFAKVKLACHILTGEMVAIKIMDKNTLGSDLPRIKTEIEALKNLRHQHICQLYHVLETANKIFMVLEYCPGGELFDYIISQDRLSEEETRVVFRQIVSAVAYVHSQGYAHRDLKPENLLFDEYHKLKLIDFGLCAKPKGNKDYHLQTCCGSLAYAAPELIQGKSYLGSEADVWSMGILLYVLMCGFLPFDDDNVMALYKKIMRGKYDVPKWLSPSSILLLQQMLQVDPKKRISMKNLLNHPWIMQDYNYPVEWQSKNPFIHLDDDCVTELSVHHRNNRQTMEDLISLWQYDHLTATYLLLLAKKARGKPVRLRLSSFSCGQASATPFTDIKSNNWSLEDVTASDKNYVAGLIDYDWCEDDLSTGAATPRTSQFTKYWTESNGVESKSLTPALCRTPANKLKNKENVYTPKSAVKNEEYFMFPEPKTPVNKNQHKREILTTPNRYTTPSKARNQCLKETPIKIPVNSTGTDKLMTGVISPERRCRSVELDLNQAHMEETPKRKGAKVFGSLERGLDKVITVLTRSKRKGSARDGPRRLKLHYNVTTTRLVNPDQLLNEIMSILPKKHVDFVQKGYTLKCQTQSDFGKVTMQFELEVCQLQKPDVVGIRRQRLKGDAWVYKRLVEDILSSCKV
Description: as §2

JAK2 = target: T5, JAK2 (Homo sapiens, UniProt O60674); test: kinase competition binding assay; conditions: Table 1
T5 construct: full-length constructs were used for small, single domain kinases, and catalytic domain constructs for large multi-domain kinases; T7 phage fusion (most assays) or DNA tag for qPCR (HEK-293-made kinases); made in house
T5 sequence (O60674 whole entry, the tested form may be a part): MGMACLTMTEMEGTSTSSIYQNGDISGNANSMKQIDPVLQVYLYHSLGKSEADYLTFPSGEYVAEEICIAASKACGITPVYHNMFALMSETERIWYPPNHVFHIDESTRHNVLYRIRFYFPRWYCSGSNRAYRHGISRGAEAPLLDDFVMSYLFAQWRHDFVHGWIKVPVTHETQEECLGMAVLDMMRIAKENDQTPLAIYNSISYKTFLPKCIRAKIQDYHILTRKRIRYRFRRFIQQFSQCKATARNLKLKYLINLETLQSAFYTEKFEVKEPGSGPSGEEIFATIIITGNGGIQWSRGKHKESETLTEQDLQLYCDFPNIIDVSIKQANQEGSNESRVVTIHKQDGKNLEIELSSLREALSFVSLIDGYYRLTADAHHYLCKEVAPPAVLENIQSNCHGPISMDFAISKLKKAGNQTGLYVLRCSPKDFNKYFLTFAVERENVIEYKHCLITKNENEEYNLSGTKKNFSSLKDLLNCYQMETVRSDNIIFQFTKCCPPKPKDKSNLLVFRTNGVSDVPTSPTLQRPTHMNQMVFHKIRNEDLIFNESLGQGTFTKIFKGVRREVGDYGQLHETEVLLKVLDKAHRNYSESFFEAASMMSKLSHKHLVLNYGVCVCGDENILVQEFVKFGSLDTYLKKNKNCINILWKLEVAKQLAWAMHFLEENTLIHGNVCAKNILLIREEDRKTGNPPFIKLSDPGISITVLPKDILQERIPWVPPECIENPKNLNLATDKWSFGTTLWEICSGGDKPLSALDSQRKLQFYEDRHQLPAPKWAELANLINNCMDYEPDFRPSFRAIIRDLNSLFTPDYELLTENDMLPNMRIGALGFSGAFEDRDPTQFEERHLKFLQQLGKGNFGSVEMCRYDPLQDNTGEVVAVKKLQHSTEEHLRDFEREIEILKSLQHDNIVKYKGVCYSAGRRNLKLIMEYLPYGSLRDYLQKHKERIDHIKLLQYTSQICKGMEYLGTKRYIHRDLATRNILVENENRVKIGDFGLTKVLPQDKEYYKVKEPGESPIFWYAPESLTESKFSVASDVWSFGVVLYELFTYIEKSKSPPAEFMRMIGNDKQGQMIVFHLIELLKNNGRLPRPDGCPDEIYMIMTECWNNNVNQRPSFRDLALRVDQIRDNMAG
Description: as §2

DRAK2 = target: T6, DRAK2 (Homo sapiens, UniProt O94768); test: kinase competition binding assay; conditions: Table 1
T6 construct: full-length constructs were used for small, single domain kinases, and catalytic domain constructs for large multi-domain kinases; T7 phage fusion (most assays) or DNA tag for qPCR (HEK-293-made kinases); made in house
Description: as §2

MEK5 = target: T7, MEK5 (Homo sapiens, UniProt Q13163); test: kinase competition binding assay; conditions: Table 1
T7 construct: T7 phage fusion (most assays) or DNA tag for qPCR (HEK-293-made kinases); made in house
T7 sequence (Q13163 whole entry, the tested form may be a part): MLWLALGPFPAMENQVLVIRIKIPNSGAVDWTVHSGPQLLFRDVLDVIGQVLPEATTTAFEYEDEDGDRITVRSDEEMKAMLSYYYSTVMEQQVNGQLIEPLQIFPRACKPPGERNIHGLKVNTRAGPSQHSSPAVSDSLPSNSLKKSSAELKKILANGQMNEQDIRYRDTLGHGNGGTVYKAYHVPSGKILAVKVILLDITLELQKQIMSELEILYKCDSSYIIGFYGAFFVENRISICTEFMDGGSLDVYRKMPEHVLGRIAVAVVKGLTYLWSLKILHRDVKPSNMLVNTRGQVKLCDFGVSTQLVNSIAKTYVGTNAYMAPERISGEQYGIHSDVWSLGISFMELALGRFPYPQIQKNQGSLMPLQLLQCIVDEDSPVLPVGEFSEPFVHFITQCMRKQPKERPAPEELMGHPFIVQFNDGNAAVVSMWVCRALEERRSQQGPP
Description: as §2

FLT3(D835V) = target: T8, FLT3(D835V) (Homo sapiens, UniProt P36888, D835V); test: kinase competition binding assay; conditions: Table 1
T8 construct: full-length constructs were used for small, single domain kinases, and catalytic domain constructs for large multi-domain kinases; T7 phage fusion (most assays) or DNA tag for qPCR (HEK-293-made kinases); made in house
Description: as §2

PDGFRa = target: T9, PDGFRa (Homo sapiens, UniProt P16234); test: kinase competition binding assay; conditions: Table 1
T9 construct: catalytic domain constructs for large multi-domain kinases; T7 phage fusion (most assays) or DNA tag for qPCR (HEK-293-made kinases); made in house
T9 sequence (P16234 593-954 limits assumed): as the sequence (P16234 593-954 T674I limits assumed) above, with I82T counted along it
Description: as §2

MNK2 = target: T10, MNK2 (Homo sapiens, UniProt Q9HBH9); test: kinase competition binding assay; conditions: Table 1
T10 construct: T7 phage fusion (most assays) or DNA tag for qPCR (HEK-293-made kinases); made in house
T10 sequence (Q9HBH9 whole entry, the tested form may be a part): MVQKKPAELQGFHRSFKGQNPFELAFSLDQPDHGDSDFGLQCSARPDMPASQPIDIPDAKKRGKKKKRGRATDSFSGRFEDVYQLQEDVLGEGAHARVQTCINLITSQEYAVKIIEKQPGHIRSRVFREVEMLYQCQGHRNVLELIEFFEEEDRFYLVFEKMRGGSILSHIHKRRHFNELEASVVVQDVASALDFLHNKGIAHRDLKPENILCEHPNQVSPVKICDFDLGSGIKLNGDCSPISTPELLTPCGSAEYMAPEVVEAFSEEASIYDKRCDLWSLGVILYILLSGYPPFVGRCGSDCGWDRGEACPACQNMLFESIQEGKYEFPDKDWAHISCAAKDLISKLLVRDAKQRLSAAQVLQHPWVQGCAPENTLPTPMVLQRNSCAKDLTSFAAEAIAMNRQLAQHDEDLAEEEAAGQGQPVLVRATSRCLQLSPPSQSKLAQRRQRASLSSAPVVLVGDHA
Description: as §2

SRC = target: T11, SRC (Homo sapiens, UniProt P12931); test: kinase competition binding assay; conditions: Table 1
T11 construct: T7 phage fusion (most assays) or DNA tag for qPCR (HEK-293-made kinases); made in house
Description: as §2

c-SRC = target: T12, c-SRC (Homo sapiens, UniProt P12931); test: kinase competition binding assay; conditions: Table 1
T12 construct: T7 phage fusion (most assays) or DNA tag for qPCR (HEK-293-made kinases); made in house
Description: as §2

JAK1 = target: T13, JAK1 (Homo sapiens, UniProt P23458); test: kinase competition binding assay; conditions: Table 1
T13 construct: full-length constructs were used for small, single domain kinases, and catalytic domain constructs for large multi-domain kinases; T7 phage fusion (most assays) or DNA tag for qPCR (HEK-293-made kinases); made in house
Description: as §2

PIK3CA(1800L) = target: T14, PIK3CA(1800L) (Homo sapiens, UniProt P42336, I800L); test: kinase competition binding assay; conditions: Table 1
T14 construct: T7 phage fusion (most assays) or DNA tag for qPCR (HEK-293-made kinases); made in house
Description: as §2

JAK3 = target: T15, JAK3 (Homo sapiens, UniProt P52333); test: kinase competition binding assay; conditions: Table 1
T15 construct: full-length constructs were used for small, single domain kinases, and catalytic domain constructs for large multi-domain kinases; T7 phage fusion (most assays) or DNA tag for qPCR (HEK-293-made kinases); made in house
T15 sequence (P52333 whole entry, the tested form may be a part): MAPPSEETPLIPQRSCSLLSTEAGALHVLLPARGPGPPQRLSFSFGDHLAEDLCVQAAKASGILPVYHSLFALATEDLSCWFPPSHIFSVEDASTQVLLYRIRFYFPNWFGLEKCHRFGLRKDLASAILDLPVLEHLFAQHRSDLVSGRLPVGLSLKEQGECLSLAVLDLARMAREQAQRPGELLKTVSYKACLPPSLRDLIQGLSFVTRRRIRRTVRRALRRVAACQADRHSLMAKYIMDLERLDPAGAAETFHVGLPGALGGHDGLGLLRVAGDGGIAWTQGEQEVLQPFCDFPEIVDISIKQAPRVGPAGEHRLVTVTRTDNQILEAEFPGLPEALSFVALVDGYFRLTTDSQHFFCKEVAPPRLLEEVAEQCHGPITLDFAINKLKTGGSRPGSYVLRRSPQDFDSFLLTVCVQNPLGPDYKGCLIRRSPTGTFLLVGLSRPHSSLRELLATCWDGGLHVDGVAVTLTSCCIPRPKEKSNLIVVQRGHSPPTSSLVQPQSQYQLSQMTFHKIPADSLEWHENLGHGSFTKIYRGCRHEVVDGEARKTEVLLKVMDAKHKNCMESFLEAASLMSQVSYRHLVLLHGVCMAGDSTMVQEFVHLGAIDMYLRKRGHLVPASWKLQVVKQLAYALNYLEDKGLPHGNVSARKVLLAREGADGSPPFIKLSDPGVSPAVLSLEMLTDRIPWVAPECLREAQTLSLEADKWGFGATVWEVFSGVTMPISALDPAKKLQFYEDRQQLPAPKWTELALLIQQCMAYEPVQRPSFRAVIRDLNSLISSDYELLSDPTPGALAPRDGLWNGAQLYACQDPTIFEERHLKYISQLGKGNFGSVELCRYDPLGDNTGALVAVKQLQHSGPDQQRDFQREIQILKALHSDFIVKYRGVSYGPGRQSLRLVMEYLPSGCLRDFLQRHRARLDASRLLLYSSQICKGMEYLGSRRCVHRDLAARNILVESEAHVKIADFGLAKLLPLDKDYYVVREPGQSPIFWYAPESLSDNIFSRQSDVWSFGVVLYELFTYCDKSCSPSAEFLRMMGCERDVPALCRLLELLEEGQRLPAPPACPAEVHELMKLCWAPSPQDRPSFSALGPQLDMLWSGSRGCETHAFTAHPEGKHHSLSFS
Description: as §2

PIK4CB = target: T16, PIK4CB (Homo sapiens, UniProt Q9UBF8); test: kinase competition binding assay; conditions: Table 1
T16 construct: T7 phage fusion (most assays) or DNA tag for qPCR (HEK-293-made kinases); made in house
Description: as §2

TXK = target: T17, TXK (Homo sapiens, UniProt P42681); test: kinase competition binding assay; conditions: Table 1
T17 construct: T7 phage fusion (most assays) or DNA tag for qPCR (HEK-293-made kinases); made in house
Description: as §2

BIKE = target: T18, BIKE (Homo sapiens, UniProt Q9NSY1); test: kinase competition binding assay; conditions: Table 1
T18 construct: full-length constructs were used for small, single domain kinases, and catalytic domain constructs for large multi-domain kinases; T7 phage fusion (most assays) or DNA tag for qPCR (HEK-293-made kinases); made in house
Description: as §2

FLT3(ITD) = target: T19, FLT3(ITD) (Homo sapiens, UniProt P36888); format: binding; conditions: Table 1
T19 construct: In general, full-length constructs were used for small, single domain kinases, and catalytic domain constructs for large multi-domain kinases; fused on or other part: T7 phage fusion or DNA tag for qPCR detection
Description: (§3) Cannabis flavonoids and their analogs were subjected to kinase inhibition assay. The compounds were first screened at a single concentration of 10 μM in the primary assay. […] To determine the kd or IC50 values, competition binding assays were established, authenticated and executed as described previously. […] See also, Karaman et al., “A Quantitative Analysis Of Kinase Inhibitor Selectivity”, Nat. Biotechnol. […] For most assays, kinases were fused to T7 phage strains (Fabian, supra) and for the other assays, kinases were produced in HEK-293 cells after which they were tagged with DNA for quantitative PCR detection. In general, full-length constructs were used for small, single domain kinases, and catalytic domain constructs for large multi-domain kinases. […] The liganded beads were blocked with excess biotin and washed with blocking buffer (SeaBlock (Pierce), 1% BSA, 0.05% Tween 20, 1 mM DTT) to remove unbound ligand and to reduce non-specific phage binding. […] All reactions were performed in polypropylene 384-well plates in a final volume of 0.04 ml. […] The kinase concentration in the eluates was measured by quantitative PCR. An illustration of the kinase interaction process is presented below. Kd/IC50 values were determined using a standard dose response curve using the hill equation. Curves were fitted using a non-linear least square fit with the Levenberg-Marquardt algorithm.

FLT3(D835Y) = target: T20, FLT3(D835Y) (Homo sapiens, UniProt P36888, D835Y); format: binding; conditions: Table 4; read-out: IC50 Kinases FLT3-D835Y
T20 construct: full-length constructs were used for small, single domain kinases, and catalytic domain constructs for large multi-domain kinases; T7 phage fusion (most assays) or DNA tag for qPCR (HEK-293-made kinases); made in house
Description: as §3

COc1cc(-c2cc(=O)c3c(O)c(CC=C(C)C)c(O)cc3o2)ccc1O [FBL-03B]
inhibition of tumor compared to the control [1]: significant inhibition of tumor

COc1ccc(-c2cc(=O)c3c(O)cc(O)cc3o2)cc1O [FBLGS-71]
IC50 [2]: 3680 nM
IC50 [3]: > 100000 nM
IC50 (MV4-11 (Leukemia); Table 4, read-out: IC50 Acute Myeloid Leukemia cell lines MV4-11): 3260 nM
IC50 (Normal Bone marrow): > 100000 nM

COc1cc(-c2cc(=O)c3c(O)c(C/C=C(\C)CCC=C(C)C)c(O)cc3o2)ccc1O [FBL-03A]
IC50 (SIRT-5): 123000 nM

COc1cc(-c2cc(=O)c3c(O)c(CC=C(C)C)c(O)cc3o2)ccc1O [cannflavin B]
cytotoxicity against cancer cells [4]: not cytotoxic

COc1cc(-c2cc(=O)c3c(O)cc(O)c(CC=C(C)C)c3o2)ccc1O [FBL-03G, Caflanone]
inhibition of tumor compared to the control [1]: significant inhibition of tumor
IC50 (MV4-11 (Leukemia); Table 3, 72 hours, WST-1, read-out: IC50 MV4-11 (Leukemia)): 38.6 nM
IC50 [5]: 64.7 nM
IC50 (MM.1S (Multiple Myeloma)): 950 nM
IC50 (PDGFRa(T6741)): 1670 nM
IC50 (Yes/yes1): 294 nM
IC50 (PIP5K1A): 320 nM
IC50 (MELK): 88.9 nM
IC50 (JAK2): 1850 nM
IC50 (DRAK2): 1400 nM
IC50 (MEK5): 190 nM
IC50 (FLT3(D835V)): 12.5 nM
IC50 (PDGFRa): 698 nM
IC50 (MNK2): 549 nM
IC50 (SRC): 1700 nM
IC50 (c-SRC): 1100 nM
IC50 (JAK1): 644 nM
IC50 (PIK3CA(1800L)): 125 nM
IC50 (JAK3): 5.58 nM
IC50 (PIK4CB): 136 nM
IC50 (TXK): 164 nM
IC50 (BIKE): 81 nM
IC50 (FLT3(ITD)): 38.2 nM

COc1ccc(-c2cc(=O)c3c(O)cc(O)cc3o2)cc1 [FBLGS-73]
IC50 [3]: > 100000 nM
IC50 (Normal Bone marrow): > 100000 nM
IC50 (FLT3(D835Y)): 49 nM
